# Active and inactive are the calls of the source.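 Rule for the calls: active = at least one rat sex group has a carcinogenic potency value and tumor site recorded; inconclusive = only rat studies were judged inadequate by the national testing program; inactive = no potency or tumor site, with negative rat experiments.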
# Tested on: rat chronic carcinogenicity bioassay, TD50
# Experiment: DSSTox (CPDBAS) Carcinogenic Potency Database Summary Rat Bioassay Results
# Details: for outcome: TD50_Rat_Note: no positive results; for Potency: active compounds read low
# Outline: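 The activity score maps log10(1/TD50_Rat_mmol) linearly onto 1–100; actives without a computed TD50, such as mixtures, receive 50. Source data are chronic rat carcinogenicity tests, using the most positive experiment for each sex.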
# [1] = TargetSites_Rat_Female: no positive results
# [2] = TD50_Rat_Note: TD50 is harmonic mean of more than one positive test, TargetSites_Rat_Female: stomach
smiles,measurement,setting,value
O=P(=O)O,outcome,[1],inactive; no positive results
CCCCC/C=C\C/C=C\CCCCCCCC(=O)OC,outcome,,inactive; no positive results
N[C@@H](Cc1ccc(N(CCCl)CCCl)cc1)C(=O)O,Potency,"TD50_Rat_Note: positive test results only by intraperitoneal or intravenous injection, TD50 is harmonic mean of more than one positive, TargetSites_Rat_Female: peritoneal cavity",0.0938 mg/kg/day
CCCCN(N=O)C(N)=O,Potency,"TD50_Rat_Note: TD50 is harmonic mean of more than one positive test, greater than ten-fold variation among TD50 values for positive res, TargetSites_Rat_Female: esophagus, ear Zymbals gland, hematopoietic system, large intestine, lung, mammary gland, stomach, uterus, vagina",0.517 mg/kg/day
O=NN(CC(F)(F)F)CC(F)(F)F,outcome,[1],inactive; no positive results
C=CCN(CC(C)=O)N=O,Potency,"TargetSites_Rat_Female: esophagus, liver",0.335 mg/kg/day
C=C(C)C,Potency,[1],3550 mg/kg/day
CN(C)CCN(Cc1cccs1)c1ccccn1,Potency,"TD50_Rat_Note: TD50 is harmonic mean of more than one positive test, TargetSites_Rat_Female: liver",9.13 mg/kg/day
CN(C)N=Nc1ccccc1,Potency,TargetSites_Rat_BothSexes: nervous system,2.31 mg/kg/day
CC(C(O)c1ccccc1)N(C)N=O (configuration not stated),Potency,,95.2 mg/kg/day
Nc1ccc2c(c1)oc1ccccc12,Potency,,2.48 mg/kg/day
C=CC(=C)C,Potency,"TD50_Rat_Note: TD50 is harmonic mean of more than one positive test, TargetSites_Rat_Female: mammary gland",313 mg/kg/day
Cc1ccc(S(=O)(=O)NC(=O)NN2CCCCCC2)cc1,outcome,[1],inactive; no positive results
CC(=O)CN(N=O)C(N)=O,outcome,[1],inactive; no positive results
O=[N+]([O-])c1ccc2c(c1)Cc1ccccc1-2,Potency,,0.285 mg/kg/day
C[N+](C)(C)CCCl,outcome,[1],inactive; no positive results
C/C=N/O,outcome,,inactive; no positive results
CC1CO1 (configuration not stated),Potency,"TD50_Rat_Note: TD50 is harmonic mean of more than one positive test, greater than ten-fold variation among TD50 values for positive res, TargetSites_Rat_Female: mammary gland, nasal cavity, stomach",74.4 mg/kg/day
NC(=O)/C(=C\c1ccc([N+](=O)[O-])o1)c1ccco1,Potency,"TD50_Rat_Note: TD50 is harmonic mean of more than one positive test, greater than ten-fold variation among TD50 values for positive res, TargetSites_Rat_Female: mammary gland",29.4 mg/kg/day
CC(=O)Nc1ccc(-c2ccccc2)cc1O,outcome,[1],inactive
CCCN(N=O)C(=N)N[N+](=O)[O-],Potency,TD50_Rat_Note: TD50 is harmonic mean of more than one positive test,1.31 mg/kg/day
C1C2OC2C2C1C1CC2C2OC12 (configuration not stated),outcome,,inactive; no positive results
O=P1(N(CCCl)CCCl)NCCCO1 (configuration not stated),Potency,"TD50_Rat_Note: TD50 is harmonic mean of more than one positive test, greater than ten-fold variation among TD50 values for positive res, TargetSites_Rat_Female: all tumor bearing animals, TargetSites_Rat_BothSexes: hematopoietic system, nervous system, urinary bladder",2.21 mg/kg/day
N#CS,outcome,[1],inactive; no positive results
S=C=NCCCCCCc1ccccc1,outcome,,inactive; no positive results
CC(C)(C)c1cc(C(C)(C)C)c(O)c(C(C)(C)C)c1,outcome,[1],inactive; no positive results
N/C(=N\O)c1ccc([N+](=O)[O-])o1,outcome,[1],inactive
CCCl,outcome,[1],inactive; no positive results
C[C@H](CCc1ccccc1)NC[C@H](O)c1ccc(O)c(C(N)=O)c1,outcome,[1],inactive; no positive results
Nc1ccc(NCCO)c([N+](=O)[O-])c1,outcome,[1],inactive; no positive results
Nc1ccccc1,Potency,"TD50_Rat_Note: TD50 is harmonic mean of more than one positive test, greater than ten-fold variation among TD50 values for positive res, TargetSites_Rat_Female: peritoneal cavity",269 mg/kg/day
same,outcome,,inactive; no positive results
CC(C)N=[N+]([O-])C(C)C,Potency,,0.00268 mg/kg/day
CCOP(=S)(OCC)SC1OCCOC1SP(=S)(OCC)OCC (configuration not stated),outcome,[1],inactive; no positive results
CNCc1ccc(CSCCNC(=NCC(O)c2ccc(O)cc2)NS(C)(=O)=O)o1 (configuration not stated),outcome,[1],inactive; no positive results
Nc1ccccc1C(=O)O,outcome,[1],inactive; no positive results
C#C[C@]1(OC(C)=O)CC[C@H]2[C@@H]3CCC4=CC(=O)CC[C@@H]4[C@H]3CC[C@@]21C,Potency,"TD50_Rat_Note: TD50_Rat_mmol was not calculated for this mixture, but Activiity Score is assigned value of 50 to indicate active, TargetSites_Rat_BothSexes: liver, mammary gland, pituitary gland, uterus",1.94 mg/kg/day
CCCCC(CC)COC(=O)CCCCC(=O)OCC(CC)CCCC (configuration not stated),outcome,[1],inactive; no positive results
CCCC(CCC)C(=O)O,Potency,TargetSites_Rat_Female: uterus,1300 mg/kg/day
C=CC(=O)c1ccc2c(c1)OCO2,outcome,,inactive; no positive results
N[C@@H](Cc1c[nH]c2ccccc12)C(=O)O,outcome,[1],inactive; no positive results
CCC(C)[N+](=O)[O-] (configuration not stated),Potency,,2.86 mg/kg/day
COc1ccc([N+](=O)[O-])cc1N,Potency,"TD50_Rat_Note: TD50 is harmonic mean of more than one positive test, TargetSites_Rat_Female: clitoral gland, skin",53.9 mg/kg/day
C=CC,outcome,[1],inactive; no positive results
C=CCOC(=O)CC(C)C,Potency,[1],123 mg/kg/day
O.O.O.O.O.O.O.O=S(=O)([O-])[O-].[Co+2],Potency,"TD50_Rat_Note: TD50 is harmonic mean of more than one positive test, TargetSites_Rat_Female: adrenal gland, lung",0.137 mg/kg/day
CC(C)NCC(O)COc1ccc(CC(N)=O)cc1 (configuration not stated),outcome,[1],inactive; no positive results
COc1cc2c(c3oc(=O)c4c(c13)CCC4=O)C1C=COC1O2 (configuration not stated),Potency,"TD50_Rat_Note: TD50 is harmonic mean of more than one positive test, harmonic mean of TD50 includes a value for upper 99% confidence li, TargetSites_Rat_Female: large intestine, liver",0.0032 mg/kg/day
N[C@@H](CS)C(=O)O,outcome,[1],inactive; no positive results
CCOC(=O)[C@]1(c2ccccc2)CCC=C[C@H]1N(C)C,outcome,[1],inactive; no positive results
Cc1c(N(C)CS(=O)(=O)O)c(=O)n(-c2ccccc2)n1C,outcome,[1],inactive; no positive results
[Na+],outcome,,inactive; no positive results
CCOP(=S)(OCC)Oc1nc(Cl)c(Cl)cc1Cl,outcome,[1],inactive; no positive results
CN(C)P(=O)(N(C)C)N(C)C,Potency,"TD50_Rat_Note: TD50 is harmonic mean of more than one positive test, TargetSites_Rat_BothSexes: nasal cavity",0.0344 mg/kg/day
C=C(C)CCl,Potency,[2],113 mg/kg/day
CC(=O)OC(OC(C)=O)c1ccc([N+](=O)[O-])o1,outcome,[1],inactive
Nc1cc([N+](=O)[O-])ccc1C(=O)O,outcome,[1],inactive; no positive results
Clc1ccccc1,Potency,[1],247 mg/kg/day
CCOP(=S)(OCC)Oc1ccc2c(C)c(Cl)c(=O)oc2c1,outcome,[1],inactive; no positive results
CCOc1ccc(NC(C)=O)cc1[N+](=O)[O-],outcome,[1],inactive; no positive results
CC1(C)COC1=O,Potency,[2],211 mg/kg/day
CCCN(N=O)C(N)=O,Potency,"TD50_Rat_Note: TD50 is harmonic mean of more than one positive test, harmonic mean of TD50 includes a value for upper 99% confidence li, TargetSites_Rat_Female: hematopoietic system",3.77 mg/kg/day
O=S1(=O)CCCO1,Potency,"TD50_Rat_Note: TD50 is harmonic mean of more than one positive test, TargetSites_Rat_Female: hematopoietic system, mammary gland, nervous system, small intestine",3.84 mg/kg/day
COP(=O)(OC)C(O)C(Cl)(Cl)Cl (configuration not stated),outcome,TargetSites_Rat_BothSexes: no positive results,inactive
O=c1ccc(=O)[nH][nH]1,outcome,[1],inactive; no positive results
CC[C@H]1OC(=O)[C@H](C)[C@@H](O[C@H]2C[C@@](C)(OC)[C@@H](O)[C@H](C)O2)[C@H](C)[C@@H](O[C@@H]2O[C@H](C)C[C@H](N(C)C)[C@H]2O)[C@](C)(O)C[C@@H](C)C(=O)[C@H](C)[C@@H](O)[C@]1(C)O,outcome,[1],inactive; no positive results
O=[N+]([O-])O,outcome,[1],inactive; no positive results
COc1ccc(C(=O)Nc2c(Cl)cncc2Cl)cc1OC1CCCC1,Potency,"TD50_Rat_Note: TD50 is harmonic mean of more than one positive test, TargetSites_Rat_Female: nasal cavity",1.54 mg/kg/day
CC(=O)Nc1ccc(S(=O)(=O)O)c2cc(S(=O)(=O)O)c(N=Nc3ccc(N=Nc4ccc(S(=O)(=O)O)cc4)c4ccc(S(=O)(=O)O)cc34)c(O)c12,outcome,[1],inactive; no positive results
O=P1(NCCCl)OCCCN1CCCl (configuration not stated),Potency,"TD50_Rat_Note: positive test results only by intraperitoneal or intravenous injection, TargetSites_Rat_Female: uterus",0.739 mg/kg/day
NC(=O)CI,outcome,,inactive; no positive results
C[N+](C)(C)CCO,outcome,,inactive; no positive results
CCNC(=S)NCC,Potency,"TD50_Rat_Note: TD50 is harmonic mean of more than one positive test, TargetSites_Rat_Female: thyroid gland",24 mg/kg/day
NCCS(=O)(=O)O,outcome,[1],inactive; no positive results
O=NN1CC=CCO1,Potency,TargetSites_Rat_BothSexes: all tumor bearing animals,90.6 mg/kg/day
Brc1cc(-c2ccc(Br)c(Br)c2Br)cc(Br)c1Br,outcome,[1],inactive
C[C@](N)(Cc1ccc(O)c(O)c1)C(=O)O,outcome,[1],inactive; no positive results
CC[N+]([O-])=NC,Potency,,0.0189 mg/kg/day
ClC1=C(Cl)C(Cl)(Cl)C(Cl)=C1Cl,outcome,[1],inactive; no positive results
COc1ccc(N)cc1N,Potency,"TD50_Rat_Note: TD50 is harmonic mean of more than one positive test, TargetSites_Rat_Female: clitoral gland, ear Zymbals gland, mammary gland, thyroid gland",183 mg/kg/day
NC(=O)N(CCO)N=O,Potency,"TD50_Rat_Note: TD50 is harmonic mean of more than one positive test, greater than ten-fold variation among TD50 values for positive res, TargetSites_Rat_Female: hematopoietic system, mammary gland",0.244 mg/kg/day
COc1ccc(N)c(OC)c1,outcome,[1],inactive; no positive results
Cc1cc(Cc2cc(C)cc(C(C)(C)C)c2O)c(O)c(C(C)(C)C)c1,outcome,[1],inactive; no positive results
CCCC[C@H](C)[C@@H](OC(=O)C[C@H](CC(=O)O)C(=O)O)[C@@H](C[C@H](C)C[C@@H](O)CCCC[C@@H](O)C[C@H](O)[C@H](C)N)OC(=O)C[C@H](CC(=O)O)C(=O)O,Potency,"TD50_Rat_Note: TD50 is harmonic mean of more than one positive test, TargetSites_Rat_Female: no positive results",1.5 mg/kg/day
CC(O)COC(C)(C)C (configuration not stated),outcome,[1],inactive; no positive results
CC(C)O,outcome,[1],inactive; no positive results
CCN(CC)C(=S)SSC(=S)N(CC)CC,outcome,[1],inactive; no positive results

# Source: PubChem BioAssay AID1208 (EPA DSSTox, 2008)
